In experiment [1] the test system is goosegrass. Briefly: Test E preemergence herbicide test. Type of experiment: in vivo, Eleusine indica. More on the design: key: 0 = no effect, 100 = complete control. The essentials:
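Test chemicals, formulated in a surfactant-containing non-phytotoxic solvent blend, are applied preemergence to seeded silt loam soil. After 21 days in the greenhouse, response is scored visually relative to controls, where 100 means complete control and 0 means no effect.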

Experiment [2] relates to crabgrass, Brazil. As to the kind of experiment: Test E preemergence herbicide test. The class given is in vivo, Digitaria horizontalis. More on the design: key: 0 = no effect, 100 = complete control. An excerpt: (§1) Seeds of plant species selected from corn (Zea mays), soybean (Glycine max), velvetleaf (Abutilon theophrasti), lambsquarters (Chenopodium album), wild poinsettia (Euphorbia heterophylla), pigweed, palmer (palmer pigweed, Amaranthus palmeri), waterhemp (common waterhemp, Amaranthus rudis), surinam grass (Brachiaria decumbens), crabgrass, large (large crabgrass, Digitaria sanguinalis), crabgrass, Brazil (Brazilian crabgrass, Digitaria horizontalis), panicum, fall (fall panicum, Panicum dichotomiflorum), foxtail, giant (giant foxtail, Setaria faberii), foxtail, green (green foxtail, Setaria viridis), goosegrass (Eleusine indica), johnsongrass (Sorghum halepense), ragweed (common ragweed, Ambrosia elatior), barnyardgrass (Echinochloa crus-galli), sandbur (southern sandbur, Cenchrus echinatus), arrowleaf […] rhombifolia), ryegrass, Italian (Italian ryegrass, Lolium multiflorum), dayflower, VA (Virginia dayflower, Commelina virginica), field bindweed (Convolvulus arvensis), morningglory (Ipomoea coccinea), nightshade (eastern black nightshade, Solanum ptycanthum), kochia (Kochia scoparia), nutsedge, yellow (yellow nutsedge, Cyperus esculentus), cocklebur (common cocklebur, Xanthium strumarium), smartweed (ladysthumb smartweed, Polygonum Persicaria) and beggarticks (hairy beggarticks, Bidens pilosa), were planted into a silt loam soil and treated preemergence with test chemicals formulated in a non-phytotoxic solvent mixture which included a surfactant. Treated plants and controls were maintained in a greenhouse for 21 days, after which time all species were compared to controls and visually evaluated. Plant response ratings, summarized in Table E, are based on a scale of 0 to 100 where 0 is no effect and 100 is complete control. A dash (-) response means no test result.

The subject of experiment [3] is beggarticks. Briefly: Test E preemergence herbicide test. The class given is in vivo, Bidens pilosa. On the set-up: key: 0 = no effect, 100 = complete control.
Description: as §1

Experiment [4] has as its system sandbur. Briefly: Test E preemergence herbicide test. On the set-up: key: 0 = no effect, 100 = complete control. The class given is in vivo, Cenchrus echinatus.
Description: as §1

In experiment [5] the test system is chamomile. As to the kind of experiment: Test D pre-/postemergence herbicide test. The conditions noted are these: for Plant response rating: Chamomile, scale 0 to 100; for Plant response rating, Chamomile: scale 0 to 100 (0 no effect, 100 complete control). The class given is in vivo, Matricaria inodora. The text has this: Seeds of plant species selected from bluegrass (annual bluegrass, Poa annua), blackgrass (Alopecurus myosuroides), canarygrass (littleseed canarygrass, Phalaris minor), chickweed (common chickweed, Stellaria media), galium (catchweed bedstraw, Galium aparine), bromegrass, downy (downy bromegrass, Bromus tectorum), field poppy (Papaver rhoeas), field violet (Viola arvensis), foxtail, green (green foxtail, Setaria viridis), deadnettle (henbit deadnettle, Lamium amplexicaule), ryegrass, Italian (Italian ryegrass, Lolium multiflorum), kochia (Kochia scoparia), lambsquarters (Chenopodium album), oilseed rape (Brassica napus), pigweed (Amaranthus retroflexus), chamomile (scentless chamomile, Matricaria inodora), Russian thistle (Salsola kali), speedwell (bird's-eye speedwell, Veronica persica), barley, spring (spring barley, Hordeum vulgare), wheat, spring (spring wheat, Triticum aestivum), buckwheat, wild (wild buckwheat, Polygonum convolvulus), mustard, wild (wild mustard, Sinapis arvensis), oat, wild (wild oat, Avena fatua), radish, wild (wild radish, Raphanus raphanistrum), […]), barley, winter (winter barley, Hordeum vulgare), and wheat, winter (winter wheat, Triticum aestivum) were planted into a silt loam soil and treated preemergence with test chemicals formulated in a non-phytotoxic solvent mixture which included a surfactant. At the same time, these species were planted in pots containing Redi-Earth® planting medium (Scotts Company, 14111 Scottslawn Road, Marysville, Ohio 43041) comprising spaghnum peat moss, vermiculite, wetting agent and starter nutrients and treated with postemergence applications of the test chemicals formulated in the same manner. Plants ranged in height from 2 to 18 cm (1- to 4-leaf stage). Treated plants and controls were maintained in a controlled growth environment for 7 to 21 days after which time all species were compared to controls and visually evaluated. Plant response ratings, summarized in Table D, are based on a scale of 0 to 100 where 0 is no effect and 100 is complete control. A dash (-) response means no test result.

The subject of experiment [6] is sprangletop, Brdd. As to the kind of experiment: Test F flood (paddy) test. Type of experiment: in vivo, Leptochloa fascicularis. The conditions noted are these: 21 d, scale 0-100. The essentials:
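In this paddy assay, 2.0–2.5-leaf plants grown in sterilized Tama silt loam (2.6% organic matter) at 30/27 °C with 16-h photoperiod receive compound via the 3-cm flood water. Control is rated visually at 21 d from 0 (none) to 100 (complete), versus untreated pots.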

Each structure is given as a SMILES string.

`O=C1NCC(c2ccc(Cl)c(Cl)c2)C1C(=O)Nc1ccccc1F` (racemic) [Compound 14]: the “Plant response rating, Goosegrass” value in experiment [1] (16 g ai/ha), in experiment [1] (31 g ai/ha), in experiment [1] (62 g ai/ha), in experiment [1] (125 g ai/ha) and in experiment [1] (250 g ai/ha) was 0 throughout. The “Plant response rating, Crabgrass, Brazil” value in experiment [2] (16 g ai/ha) was found to be 0; in experiment [2] (31 g ai/ha) it was 65; in experiment [2] (62 g ai/ha), 80; in experiment [2] (125 g ai/ha), 95; in experiment [2] (250 g ai/ha), 95. The “Plant response rating, Beggarticks” value in experiment [3] (16 g ai/ha), in experiment [3] (31 g ai/ha), in experiment [3] (62 g ai/ha), in experiment [3] (125 g ai/ha) and in experiment [3] (250 g ai/ha) was 0 throughout. For the same compound, the “Plant response rating, Sandbur” value in experiment [4] (16 g ai/ha) was determined as 0; in experiment [4] (31 g ai/ha), 0; in experiment [4] (62 g ai/ha), 0; in experiment [4] (125 g ai/ha), 0; in experiment [4] (250 g ai/ha), 30.
Take `O=C1NCC(c2ccc(C(F)(F)F)cc2)C1C(=O)Nc1cccc(F)c1F` (racemic) [Compound 202]: the “Plant response rating, Goosegrass” value was found to be 35 in experiment [1] (31 g ai/ha), 70 in experiment [1] (62 g ai/ha), 90 in experiment [1] (125 g ai/ha) and 98 in experiment [1] (250 g ai/ha). In addition, the “Plant response rating, Crabgrass, Brazil” value in experiment [2] (31 g ai/ha) came to 80; in experiment [2] (62 g ai/ha) it was 98; in experiment [2] (125 g ai/ha), 98; in experiment [2] (250 g ai/ha) it was 98. The “Plant response rating, Beggarticks” value turned out to be 0 in experiment [3] (31 g ai/ha), 0 in experiment [3] (62 g ai/ha), 35 in experiment [3] (125 g ai/ha) and 80 in experiment [3] (250 g ai/ha). Besides, the “Plant response rating, Sandbur” value in experiment [4] (31 g ai/ha) was 35; in experiment [4] (62 g ai/ha), 70; in experiment [4] (125 g ai/ha), 85; in experiment [4] (250 g ai/ha), 80. The Plant response rating in experiment [5] (Postemergence, 31 g ai/ha) is 5; in experiment [5] (Postemergence, 62 g ai/ha), 60; in experiment [5] (Postemergence, 125 g ai/ha), 65; in experiment [5] (Postemergence, 250 g ai/ha) it was 60; in experiment [5] (Preemergence, 125 g ai/ha), 75; in experiment [5] (Preemergence, 250 g ai/ha), 100. Further, the “Plant response rating, Chamomile” value in experiment [5] (Preemergence, 62 g ai/ha) is 65; in experiment [5] (Preemergence, 31 g ai/ha), 60.
On to `O=C1NCC(c2ccc(OC(F)F)cc2)C1C(=O)Nc1cccc(F)c1F` (racemic) [Compound 350], for which the “Plant response rating, Goosegrass” value in experiment [1] (31 g ai/ha) came out at 0; in experiment [1] (62 g ai/ha) it was 0; in experiment [1] (125 g ai/ha), 0; in experiment [1] (250 g ai/ha), 25. Besides, the “Plant response rating, Crabgrass, Brazil” value came to 0 in experiment [2] (31 g ai/ha), 75 in experiment [2] (62 g ai/ha), 95 in experiment [2] (125 g ai/ha) and 98 in experiment [2] (250 g ai/ha). Moreover, the “Plant response rating, Beggarticks” value is on record as 0 in experiment [3] (31 g ai/ha), 0 in experiment [3] (62 g ai/ha), 20 in experiment [3] (125 g ai/ha) and 20 in experiment [3] (250 g ai/ha). For the same compound, the “Plant response rating, Sandbur” value was 15 in experiment [4] (31 g ai/ha), 35 in experiment [4] (62 g ai/ha), 65 in experiment [4] (125 g ai/ha) and 85 in experiment [4] (250 g ai/ha).
In the case of `O=C1NCC(c2ccc(C(F)(F)F)cc2)C1C(=O)Nc1cccc(F)c1F` (centres unmarked) [Compound 80, N-(2,3-difluorophenyl)-2-oxo-4-[4-(trifluoromethyl)phenyl]-3-pyrrolidinecarboxamide], the “Plant response rating, Goosegrass” value in experiment [1] (16 g ai/ha) is 10; in experiment [1] (31 g ai/ha), 30; in experiment [1] (62 g ai/ha), 60; in experiment [1] (125 g ai/ha), 70; in experiment [1] (250 g ai/ha), 80. Further, the “Plant response rating, Crabgrass, Brazil” value amounted to 70 in experiment [2] (125 g ai/ha) and 95 in experiment [2] (250 g ai/ha). In addition, the “Plant response rating, Beggarticks” value in experiment [3] (16 g ai/ha) is reported as 0; in experiment [3] (31 g ai/ha), 0; in experiment [3] (62 g ai/ha), 0; in experiment [3] (125 g ai/ha), 20; in experiment [3] (250 g ai/ha), 60. Also, the “Plant response rating, Sandbur” value is 20 in experiment [4] (16 g ai/ha); 30 in experiment [4] (31 g ai/ha); 50 in experiment [4] (62 g ai/ha); 65 in experiment [4] (125 g ai/ha); 70 in experiment [4] (250 g ai/ha). In addition, the Plant response rating is reported as 20 in experiment [5] (Postemergence, 31 g ai/ha); 30 in experiment [5] (Postemergence, 62 g ai/ha); 35 in experiment [5] (Postemergence, 125 g ai/ha); 50 in experiment [5] (Postemergence, 250 g ai/ha); 80 in experiment [5] (Preemergence, 125 g ai/ha); 85 in experiment [5] (Preemergence, 250 g ai/ha). In addition, the “Plant response rating, Chamomile” value is listed as 80 in experiment [5] (Preemergence, 62 g ai/ha) and 80 in experiment [5] (Preemergence, 31 g ai/ha).
Consider `O=C1NC[C@H](c2cccc(C(F)(F)F)c2)[C@H]1C(=O)Nc1ccccc1F` [Compound 204, (3R,4S)—N-(2-fluorophenyl)-2-oxo-4-[3-(trifluoromethyl)phenyl]-3-pyrrolidinecarboxamide], for which the “Plant response rating, Goosegrass” value in experiment [1] (31 g ai/ha), in experiment [1] (62 g ai/ha), in experiment [1] (125 g ai/ha) and in experiment [1] (250 g ai/ha) was 0 each time. In addition, the “Plant response rating, Crabgrass, Brazil” value in experiment [2] (31 g ai/ha) worked out at 95; in experiment [2] (62 g ai/ha), 95; in experiment [2] (125 g ai/ha) it was 98; in experiment [2] (250 g ai/ha), 98. The “Plant response rating, Beggarticks” value in experiment [3] (31 g ai/ha), in experiment [3] (62 g ai/ha), in experiment [3] (125 g ai/ha) and in experiment [3] (250 g ai/ha) was 0 throughout. The “Plant response rating, Sandbur” value turned out to be 20 in experiment [4] (31 g ai/ha), 50 in experiment [4] (62 g ai/ha), 75 in experiment [4] (125 g ai/ha) and 80 in experiment [4] (250 g ai/ha). For the same compound, the “Plant response rating, Sprangletop, Brdd.” value in experiment [6] (125 g ai/ha) is listed as 98; in experiment [6] (250 g ai/ha), 100; in experiment [6] (500 g ai/ha), 100.

For the origin of these results see patent publication US10294202B2, “Pyrrolidinones as herbicides” (FMC Corporation, priority 2013, dated 2019).
